From patent EP2799533A1, “Protease and inhibitor containing water-soluble films” (Novozymes A/S, priority 2013, dated 2014)

Key:
Format in all cases: biochemical
Mannaway = assay: Residual enzymatic activity of mannanase in water-soluble film after film production; conditions: Mannanase (Mannaway, 0.03% wt) in film with Savinase protease; 0.5% wt 4-FPBA; vs. amount of enzyme added; average of three analyses; film without 4-FPBA: 1%
Experimental: (§1) We prepared two different enzyme containing water-soluble films, as outlined in Table 1 below. The films were produced under normal film production conditions. Later, the films were analyzed to estimate the enzymatic activity remaining after the production process, i.e., the percentage of residual enzymatic activity in the final film product, as compared to the amount of enzyme added in the production process.
The mannanase used was Mannaway (Novozymes A/S, Denmark), which was added to obtain a final concentration of 0.03% wt active enzyme protein in both of the films.
(§2) The protease inhibitor used was 4-formyl-phenyl-boronic acid (4-FPBA), which was added to obtain a final concentration of 0.5% wt in one of the water-soluble films.
(§3) Since the humidity of the samples was not controlled, some of the absolute values from the analysis are above 100%. However, all film samples were treated identically and analyzed at the same time, and therefore the relative improvement by using the protease inhibitor can be calculated. Table 1. The data are based on an average of three analyses of each film.

Stainzyme = assay: Residual enzymatic activity of amylase in water-soluble film after film production
Experimental: as §1
The amylase used was Stainzyme (Novozymes A/S, Denmark), which was added to obtain a final concentration of 0.1 % wt active enzyme protein in both of the films.
as §2, §3

Savinase = biological target: T1, Savinase (Lederbergia lenta, UniProt P29600); assay: Residual enzymatic activity of protease in water-soluble film after film production
T1 construct: purchased Novozymes A/S, Denmark
T1 sequence (P29600 1-269): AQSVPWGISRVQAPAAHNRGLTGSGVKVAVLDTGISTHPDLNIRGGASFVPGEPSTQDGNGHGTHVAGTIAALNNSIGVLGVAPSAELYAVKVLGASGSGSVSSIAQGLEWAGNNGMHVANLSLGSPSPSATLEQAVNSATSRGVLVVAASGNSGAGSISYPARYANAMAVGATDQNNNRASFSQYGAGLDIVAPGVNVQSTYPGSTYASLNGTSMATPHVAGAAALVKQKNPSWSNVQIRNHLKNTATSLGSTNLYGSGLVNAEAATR
Experimental: as §1
The protease used for preparing the films was Savinase (Novozymes A/S, Denmark), which was added to obtain a final concentration of 1.1 % wt active enzyme protein in both of the water-soluble films.
as §2, §3

Q: How did the “Residual activity in film made with 4-FPBA” value (shortened to “Residual activity”) (Mannaway) turn out when `O=Cc1ccc(B(O)O)cc1` [4-FPBA, 4-formyl-phenyl-boronic acid] was run?
A: The value was 63%.

Q: And the “Residual activity” value (Stainzyme; Amylase (Stainzyme, 0.1 % wt) in film with Savinase protease, 0.5% wt 4-FPBA, vs. amount of enzyme added, average of three analyses, humidity not controlled, values above 100%, film without 4-FPBA: 106%)?
A: The value was 114%.

Q: What about the “Relative improvement by using inhibitor” value (Stainzyme; Amylase, film with 0.5% wt 4-FPBA vs. film without 4-FPBA) of the same compound?
A: The value was 8%.

Q: What about the “Residual activity” value (Savinase; Protease (Savinase, 1.1 % wt) in film also holding amylase and mannanase, 0.5% wt 4-FPBA, vs. amount of enzyme added, average of three analyses, film without 4-FPBA: 87%) of the same compound?
A: Its value is 93%.

Q: And the “Relative improvement by using inhibitor” value (Savinase; Protease, film with 0.5% wt 4-FPBA vs. film without 4-FPBA)?
A: Its value is 7%.
